Data: publication PMC5218480 (PLoS ONE, 2017)

System: MV-4-11 cells
Assay: Gene expression microarray analysis (Affymetrix PrimeView) and GSEA
Assay type: cell-based, human
Set-up: RFU PODN (11730768_x_at) / Fold change /veh PODN (11730768_x_at) / RFU LINC00158 (11744669_a_at) / Fold change /veh LINC00158 (11744669_a_at) / RFU DUSP10 (11751237_a_at) / Fold change /veh DUSP10 (11751237_a_at) / RFU ID3 (11757404_x_at) / Fold change /veh ID3 (11757404_x_at) / RFU PLEKHG5 (11737974_s_at) / Fold change /veh PLEKHG5 (11737974_s_at) / RFU LRRC4B (11730491_at) / Fold change /veh LRRC4B (11730491_at) / RFU GIMAP4 (11747438_a_at) / Fold change /veh GIMAP4 (11747438_a_at) / RFU KRT8 (11758183_x_at) / Fold change /veh KRT8 (11758183_x_at) / RFU CNN1 (11734310_a_at) / Fold change /veh CNN1 (11734310_a_at) / RFU VPS37D (11726825_at) / Fold change /veh VPS37D (11726825_at) / RFU C10orf10 (11716522_x_at) / Fold change /veh C10orf10 (11716522_x_at) / RFU KIR2DL2 /// KIR2DL4 /// KIR2DL5A /// KIR2DL5B /// KIR2DS1 /// KIR2DS2 /// KIR2DS3 /// KIR2DS4 /// KIR3DL3 /// KIR3DL3 /// KIR3DS1 (11738374_at) / Fold change /veh KIR2DL2 /// KIR2DL4 /// KIR2DL5A /// KIR2DL5B /// KIR2DS1 /// KIR2DS2 /// KIR2DS3 /// KIR2DS4 /// KIR3DL3 /// KIR3DL3 /// KIR3DS1 (11738374_at) / RFU C1QL1 (11718748_at) / Fold change /veh C1QL1 (11718748_at) / RFU TMPRSS4 (11747572_a_at) / Fold change /veh TMPRSS4 (11747572_a_at) / RFU HAMP (11756126_x_at) / Fold change /veh HAMP (11756126_x_at) / RFU RNFT2 (11725882_a_at) / Fold change /veh RNFT2 (11725882_a_at) / RFU NR4A2 (11747474_a_at) / Fold change /veh NR4A2 (11747474_a_at) / RFU ABCC12 (11746883_a_at) / Fold change /veh ABCC12 (11746883_a_at) / RFU TMEM136 (11760407_x_at) / Fold change /veh TMEM136 (11760407_x_at) / RFU CLDN22 /// WWC2 (11732394_at) / Fold change /veh CLDN22 /// WWC2 (11732394_at) / RFU HLA-DPB1 (11760878_x_at) / Fold change /veh HLA-DPB1 (11760878_x_at) / RFU SPINT1 (11716480_a_at) / Fold change /veh SPINT1 (11716480_a_at) / RFU GAP43 (11754022_s_at) / Fold change /veh GAP43 (11754022_s_at) / RFU A4GNT (11735810_at) / Fold change /veh A4GNT (11735810_at) / RFU PRB3 (11715151_x_at) / Fold change /veh PRB3 (11715151_x_at) / RFU TUBB4B (11761932_at) / Fold change /veh TUBB4B (11761932_at) / RFU CAPN14 (11732068_a_at) / Fold change /veh CAPN14 (11732068_a_at) / RFU TMCC2 (11721928_a_at) / Fold change /veh TMCC2 (11721928_a_at) / RFU IRGQ (11745062_a_at) / Fold change /veh IRGQ (11745062_a_at) / RFU FAM174B (11720279_a_at) / Fold change /veh FAM174B (11720279_a_at) / RFU TMPRSS4 (11748680_a_at) / Fold change /veh TMPRSS4 (11748680_a_at) / RFU FAM212B (11763350_a_at) / Fold change /veh FAM212B (11763350_a_at) / RFU PLEKHG5 (11743358_a_at) / Fold change /veh PLEKHG5 (11743358_a_at) / RFU ZSCAN30 (11745921_a_at) / Fold change /veh ZSCAN30 (11745921_a_at) / RFU CMKLR1 (11741424_a_at) / Fold change /veh CMKLR1 (11741424_a_at) / RFU LOC101060620 /// MAPK8IP1 (11723275_at) / Fold change /veh LOC101060620 /// MAPK8IP1 (11723275_at) / RFU SPTSSB (11747773_x_at) / Fold change /veh SPTSSB (11747773_x_at) / RFU PRSS12 (11739890_at) / Fold change /veh PRSS12 (11739890_at) / RFU BIN1 (11741810_x_at) / Fold change /veh BIN1 (11741810_x_at) / RFU WNT11 (11732464_a_at) / Fold change /veh WNT11 (11732464_a_at) / RFU C10orf10 (11716521_a_at) / Fold change /veh C10orf10 (11716521_a_at) / RFU C5orf56 (11738089_at) / Fold change /veh C5orf56 (11738089_at) / RFU CYB561 (11721691_x_at) / Fold change /veh CYB561 (11721691_x_at) / RFU ANKRD19P (11752326_a_at) / Fold change /veh ANKRD19P (11752326_a_at) / RFU OR2T12 /// OR2T33 /// OR2T8 (11738714_s_at) / Fold change /veh OR2T12 /// OR2T33 /// OR2T8 (11738714_s_at) / RFU VCAN (11748164_a_at) / Fold change /veh VCAN (11748164_a_at) / RFU JSRP1 (11732532_at) / Fold change /veh JSRP1 (11732532_at) / RFU KRTAP10-11 (11738290_x_at) / Fold change /veh KRTAP10-11 (11738290_x_at) / RFU MYO3A (11730013_a_at) / Fold change /veh MYO3A (11730013_a_at) / RFU EBF3 (11725865_a_at) / Fold change /veh EBF3 (11725865_a_at) / RFU CAMK2N1 (11719241_x_at) / Fold change /veh CAMK2N1 (11719241_x_at) / RFU C5orf56 (11738088_a_at) / Fold change /veh C5orf56 (11738088_a_at) / RFU OLFML3 (11715873_a_at) / Fold change /veh OLFML3 (11715873_a_at) / RFU LOC100653217 /// NTM (11731650_a_at) / Fold change /veh LOC100653217 /// NTM (11731650_a_at) / RFU MAPK11 (11762145_a_at) / Fold change /veh MAPK11 (11762145_a_at) / RFU FIZ1 (11724087_x_at) / Fold change /veh FIZ1 (11724087_x_at) / RFU OASL (11726364_x_at) / Fold change /veh OASL (11726364_x_at) / RFU SOX15 (11748057_x_at) / Fold change /veh SOX15 (11748057_x_at) / RFU CD79A (11719716_a_at) / Fold change /veh CD79A (11719716_a_at) / RFU HIST1H1D (11736915_at) / Fold change /veh HIST1H1D (11736915_at) / RFU CASKIN2 (11723855_a_at) / Fold change /veh CASKIN2 (11723855_a_at) / RFU LOC730098 (11760151_x_at) / Fold change /veh LOC730098 (11760151_x_at) / RFU OR4N2 (11742367_at) / Fold change /veh OR4N2 (11742367_at) / RFU PRRT2 (11749266_a_at) / Fold change /veh PRRT2 (11749266_a_at) / RFU SNX32 (11753110_a_at) / Fold change /veh SNX32 (11753110_a_at) / RFU CDHR5 (11726645_a_at) / Fold change /veh CDHR5 (11726645_a_at) / RFU RCAN1 (11760418_a_at) / Fold change /veh RCAN1 (11760418_a_at) / RFU FAM167A (11723789_a_at) / Fold change /veh FAM167A (11723789_a_at) / RFU FAM26E (11764081_at) / Fold change /veh FAM26E (11764081_at) / RFU ISYNA1 (11749810_s_at) / Fold change /veh ISYNA1 (11749810_s_at) / RFU ACY1 (11761880_at) / Fold change /veh ACY1 (11761880_at) / RFU 11764098_at / Fold change /veh 11764098_at / RFU SAMD14 (11745864_x_at) / Fold change /veh SAMD14 (11745864_x_at) / RFU NPB (11741838_a_at) / Fold change /veh NPB (11741838_a_at) / RFU TMPRSS6 (11731388_a_at) / Fold change /veh TMPRSS6 (11731388_a_at) / RFU KRTAP10-2 (11738614_at) / Fold change /veh KRTAP10-2 (11738614_at) / RFU ARHGAP8 /// PRR5-ARHGAP8 (11727945_x_at) / Fold change /veh ARHGAP8 /// PRR5-ARHGAP8 (11727945_x_at) / RFU KRTAP5-7 /// NADSYN1 (11734609_at) / Fold change /veh KRTAP5-7 /// NADSYN1 (11734609_at) / RFU RASL12 (11751679_a_at) / Fold change /veh RASL12 (11751679_a_at) / RFU CDKN2B (11736163_a_at) / Fold change /veh CDKN2B (11736163_a_at) / RFU PRF1 (11729649_at) / Fold change /veh PRF1 (11729649_at) / RFU, ZNF638 /// ZNF638-IT1 / Fold change vs veh, ZNF638 /// ZNF638-IT1 / RFU, PANK3 / Fold change vs veh, PANK3 / RFU, SH3YL1 / Fold change vs veh, SH3YL1 / RFU, ZEB2 / Fold change vs veh, ZEB2 / RFU, NRIP1 / Fold change vs veh, NRIP1 / RFU, PTTG1IP / Fold change vs veh, PTTG1IP / RFU, CAPN2 / Fold change vs veh, CAPN2 / RFU, MED14 / Fold change vs veh, MED14 / RFU, SNORA58 / Fold change vs veh, SNORA58 / RFU, C1orf63 / Fold change vs veh, C1orf63 / RFU, LRRFIP1 / Fold change vs veh, LRRFIP1 / RFU, NDUFAF7 / Fold change vs veh, NDUFAF7 / RFU, SLC12A2 / Fold change vs veh, SLC12A2 / RFU, IBTK / Fold change vs veh, IBTK / RFU, ESF1 / Fold change vs veh, ESF1 / Fold change vs veh, TMEM50B / RFU, TAOK1 / Fold change vs veh, TAOK1 / RFU, ACBD3 / Fold change vs veh, ACBD3 / RFU, TMA16 / Fold change vs veh, TMA16 / RFU, RWDD3 / Fold change vs veh, RWDD3 / RFU, BCAT1 / Fold change vs veh, BCAT1 / RFU, EDEM3 / Fold change vs veh, EDEM3 / RFU, TMEM33 / Fold change vs veh, TMEM33 / RFU, WDR75 / Fold change vs veh, WDR75 / RFU, AHCTF1 / Fold change vs veh, AHCTF1 / RFU, TFRC / Fold change vs veh, TFRC / RFU, ZDHHC17 / Fold change vs veh, ZDHHC17 / RFU, NOM1 / Fold change vs veh, NOM1 / RFU, ARL8B / Fold change vs veh, ARL8B / RFU, ZBTB11 / Fold change vs veh, ZBTB11 / RFU, TAMM41 / Fold change vs veh, TAMM41 / RFU, KIAA1704 /// LOC100996395 / Fold change vs veh, KIAA1704 /// LOC100996395 / RFU, ING1 / Fold change vs veh, ING1 / RFU, TRMT61B / Fold change vs veh, TRMT61B / RFU, FUBP3 / Fold change vs veh, FUBP3 / RFU, TP53 / Fold change vs veh, TP53 / RFU, TNKS2 / Fold change vs veh, TNKS2 / RFU, ZFP14 / Fold change vs veh, ZFP14 / RFU, ACTR2 / Fold change vs veh, ACTR2 / RFU, PPP3R1 / Fold change vs veh, PPP3R1 / RFU, PIK3R1 / Fold change vs veh, PIK3R1 / RFU, HNRNPA1 / Fold change vs veh, HNRNPA1 / RFU, RNF170 / Fold change vs veh, RNF170 / RFU, ZNF28 / Fold change vs veh, ZNF28 / RFU, RNGTT / Fold change vs veh, RNGTT / RFU, OGT / Fold change vs veh, OGT / RFU, BRD1 / Fold change vs veh, BRD1 / RFU, MARS / Fold change vs veh, MARS / RFU, ZNF655 / Fold change vs veh, ZNF655 / RFU, FAHD1 / Fold change vs veh, FAHD1 / RFU, BDP1 / Fold change vs veh, BDP1 / RFU, LRRCC1 / Fold change vs veh, LRRCC1 / RFU, ARID1A / Fold change vs veh, ARID1A / RFU, ZNF146 / Fold change vs veh, ZNF146 / RFU, ZNF330 / Fold change vs veh, ZNF330 / RFU, GPN3 / Fold change vs veh, GPN3 / RFU, C9orf123 / Fold change vs veh, C9orf123 / RFU, N4BP2L2 / Fold change vs veh, N4BP2L2 / RFU, ARFIP1 / Fold change vs veh, ARFIP1 / RFU, FAM179B / Fold change vs veh, FAM179B / RFU, BCL10 / Fold change vs veh, BCL10 / RFU, UHRF1BP1L / Fold change vs veh, UHRF1BP1L / RFU, BET1 / Fold change vs veh, BET1 / RFU, CNOT2 / Fold change vs veh, CNOT2 / RFU, ZNF268 / Fold change vs veh, ZNF268 / Fold change vs veh, ZNF507 / RFU, DGCR2 / Fold change vs veh, DGCR2 / RFU, WDSUB1 / Fold change vs veh, WDSUB1 / Fold change vs veh, HSP90B1 /// MIR3652 / RFU, ADSS / Fold change vs veh, ADSS / RFU, GK / Fold change vs veh, GK / RFU, ZNF148 / Fold change vs veh, ZNF148 / RFU, TAF9 / Fold change vs veh, TAF9 / RFU, SLC1A5 / Fold change vs veh, SLC1A5 / RFU, SLMO2 / Fold change vs veh, SLMO2 / RFU, ABCC4 / Fold change vs veh, ABCC4 / RFU, LOC101060439 /// RAP1B / Fold change vs veh, LOC101060439 /// RAP1B / RFU, RFX7 / Fold change vs veh, RFX7 / RFU, GTPBP10 / Fold change vs veh, GTPBP10 / RFU, CNEP1R1 / Fold change vs veh, CNEP1R1 / RFU, BIVM-ERCC5 /// ERCC5 / Fold change vs veh, BIVM-ERCC5 /// ERCC5 / RFU, ILF3 / Fold change vs veh, ILF3 / RFU 11762660_at / Fold change /veh 11762660_at / RFU VCAN (11757783_s_at) / Fold change /veh VCAN (11757783_s_at) / RFU DDX43 (11728927_at) / Fold change /veh DDX43 (11728927_at) / RFU KRT8 (11758188_x_at) / Fold change /veh KRT8 (11758188_x_at) / RFU NKD1 (11759106_at) / Fold change /veh NKD1 (11759106_at) / RFU SRD5A1 (11742802_a_at) / Fold change /veh SRD5A1 (11742802_a_at) / RFU TPSAB1 /// TPSB2 (11721975_s_at) / Fold change /veh TPSAB1 /// TPSB2 (11721975_s_at) / RFU GSTM3 (11746129_a_at) / Fold change /veh GSTM3 (11746129_a_at) / RFU IL23R (11737362_x_at) / Fold change /veh IL23R (11737362_x_at) / RFU TMEM51 (11727254_a_at) / Fold change /veh TMEM51 (11727254_a_at) / RFU PIWIL2 (11732686_x_at) / Fold change /veh PIWIL2 (11732686_x_at) / RFU ORM1 (11744905_x_at) / Fold change /veh ORM1 (11744905_x_at) / RFU CCDC152 (11743942_at) / Fold change /veh CCDC152 (11743942_at) / RFU ECM1 (11717891_a_at) / Fold change /veh ECM1 (11717891_a_at) / RFU IL23R (11748794_a_at) / Fold change /veh IL23R (11748794_a_at) / RFU TNFAIP8L3 (11732012_x_at) / Fold change /veh TNFAIP8L3 (11732012_x_at) / RFU MBOAT4 (11741988_at) / Fold change /veh MBOAT4 (11741988_at) / RFU 11764193_at / Fold change /veh 11764193_at / RFU TMEM53 (11763286_at) / Fold change /veh TMEM53 (11763286_at) / RFU MAGEB2 (11727129_at) / Fold change /veh MAGEB2 (11727129_at) / RFU TMEM200A (11744735_a_at) / Fold change /veh TMEM200A (11744735_a_at) / RFU CCDC152 (11751479_a_at) / Fold change /veh CCDC152 (11751479_a_at) / RFU FAM211A (11726209_a_at) / Fold change /veh FAM211A (11726209_a_at) / RFU RGS16 (11746705_a_at) / Fold change /veh RGS16 (11746705_a_at) / RFU VCAN (11755009_s_at) / Fold change /veh VCAN (11755009_s_at) / RFU RHOB (11743442_s_at) / Fold change /veh RHOB (11743442_s_at) / RFU RGS16 (11720943_a_at) / Fold change /veh RGS16 (11720943_a_at) / RFU RGS16 (11720944_at) / Fold change /veh RGS16 (11720944_at) / RFU, VPS4B / Fold change vs veh, VPS4B / RFU, CREB1 / Fold change vs veh, CREB1 / RFU, DNAJC13 / Fold change vs veh, DNAJC13 / RFU, GNAQ / Fold change vs veh, GNAQ / RFU, CDK5R1 / Fold change vs veh, CDK5R1 / RFU, ZRANB3 / Fold change vs veh, ZRANB3 / RFU, CUL4A / Fold change vs veh, CUL4A / RFU, CCNY / Fold change vs veh, CCNY / RFU, UFL1 / Fold change vs veh, UFL1 / RFU, COG3 / Fold change vs veh, COG3 / RFU, DIAPH2 / Fold change vs veh, DIAPH2 / RFU, SKA2 / Fold change vs veh, SKA2 / RFU, AFF3 / Fold change vs veh, AFF3 / RFU, LMF1 / Fold change vs veh, LMF1 / RFU, IPO11 / Fold change vs veh, IPO11 / RFU, DFFB / Fold change vs veh, DFFB / RFU, FOXP1 / Fold change vs veh, FOXP1 / RFU, CARD8 / Fold change vs veh, CARD8 / RFU, STRN3 / Fold change vs veh, STRN3 / RFU, ADK / Fold change vs veh, ADK / RFU, RASSF2 / Fold change vs veh, RASSF2 / RFU, WIPF1 / Fold change vs veh, WIPF1 / RFU, LARP1B / Fold change vs veh, LARP1B / RFU, RASA1 / Fold change vs veh, RASA1 / RFU, RB1 / Fold change vs veh, RB1 / RFU, PPFIA1 / Fold change vs veh, PPFIA1 / RFU, MAT2A / Fold change vs veh, MAT2A / RFU, CCT5 / Fold change vs veh, CCT5 / RFU, WDR92 / Fold change vs veh, WDR92 / RFU, CUX1 / Fold change vs veh, CUX1 / RFU, TTC7A / Fold change vs veh, TTC7A / RFU, TMEM135 / Fold change vs veh, TMEM135 / RFU, DEPTOR / Fold change vs veh, DEPTOR / RFU, CPM / Fold change vs veh, CPM / RFU, DNAJB6 / Fold change vs veh, DNAJB6 / RFU, CACNA2D3 / Fold change vs veh, CACNA2D3 / RFU, DTX4 / Fold change vs veh, DTX4 / RFU, TFCP2 / Fold change vs veh, TFCP2 / RFU, GMCL1 /// GMCL1P1 / Fold change vs veh, GMCL1 /// GMCL1P1 / RFU, AEBP2 / Fold change vs veh, AEBP2 / RFU, SNHG1 /// SNORD22 /// SNORD25 /// SNORD26 /// SNORD27 /// SNORD28 /// SNORD29 /// SNORD31 / Fold change vs veh, SNHG1 /// SNORD22 /// SNORD25 /// SNORD26 /// SNORD27 /// SNORD28 /// SNORD29 /// SNORD31 / Fold change (Aza/veh), C12orf56 (ProbeSet 11735607_a_at) / Fold change (ACY-1035/veh), C12orf56 (ProbeSet 11735607_a_at) / Fold change (Aza/veh), FGFR1OP (ProbeSet 11751329_s_at) / Fold change (ACY-1035/veh), FGFR1OP (ProbeSet 11751329_s_at) / Fold change (Aza/veh), VPS36 (ProbeSet 11739960_a_at) / Fold change (ACY-1035/veh), VPS36 (ProbeSet 11739960_a_at) / RFU SYPL1 (11715823_x_at) / Fold change /veh SYPL1 (11715823_x_at) / RFU IGFBP7 (11715501_s_at) / Fold change /veh IGFBP7 (11715501_s_at) / RFU REEP3 (11722064_at) / Fold change /veh REEP3 (11722064_at) / RFU IGLL1 (11728026_x_at) / Fold change /veh IGLL1 (11728026_x_at): dose or concentration left out as unconfirmed
Conditions: ProbeSet 11732165_x_at; LIST D

Question: `Nc1ccc(-c2cccs2)cc1NC(=O)c1ccc2c(c1)cc(C1CC1)n2CCN1CCOCC1` [ACY-1035] was tested. Which “RFU, LMF1” value did it give?
Answer: 59.92 RFU
